Target: T1, GlyT1 transporter (Homo sapiens, UniProt P48067)
T1 construct: endogenously expressing the GlyT1 transporter; host or cells: SK-N-MC human neuroblastoma cells
T1 sequence (P48067 1-706): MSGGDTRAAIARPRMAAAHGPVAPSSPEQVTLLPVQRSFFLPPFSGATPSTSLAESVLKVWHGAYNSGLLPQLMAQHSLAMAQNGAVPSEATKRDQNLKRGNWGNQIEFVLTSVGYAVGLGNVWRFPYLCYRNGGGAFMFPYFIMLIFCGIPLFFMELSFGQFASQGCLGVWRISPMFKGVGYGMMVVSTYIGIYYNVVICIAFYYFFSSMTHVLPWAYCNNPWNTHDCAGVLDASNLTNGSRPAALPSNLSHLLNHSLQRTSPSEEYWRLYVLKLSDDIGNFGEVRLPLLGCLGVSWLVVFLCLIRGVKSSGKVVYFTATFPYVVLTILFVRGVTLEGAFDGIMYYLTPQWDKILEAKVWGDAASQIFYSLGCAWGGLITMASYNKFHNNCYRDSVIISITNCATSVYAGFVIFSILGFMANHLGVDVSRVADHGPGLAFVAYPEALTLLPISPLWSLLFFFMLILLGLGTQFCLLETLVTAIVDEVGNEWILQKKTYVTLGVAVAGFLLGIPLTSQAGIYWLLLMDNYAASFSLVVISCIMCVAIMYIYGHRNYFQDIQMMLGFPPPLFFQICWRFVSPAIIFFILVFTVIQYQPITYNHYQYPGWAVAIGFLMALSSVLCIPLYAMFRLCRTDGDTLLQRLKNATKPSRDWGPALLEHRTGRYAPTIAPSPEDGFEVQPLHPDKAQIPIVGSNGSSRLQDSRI
Experiment: GlyT1 assay: 3H-glycine uptake into SK-N-MC cells (Cytostar-T format)
Format: cell-based
Conditions: glycine uptake in human SK-N-MC cells endogenously expressing GlyT1; 500 nM glycine, 1% DMSO, signal recorded over 60 min
How it was run: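 Uptake slopes, measured over 60 min from the linear kinetic range, give IC50 from 8 compound concentrations, with 10 μM RG-1678 setting background. Substrate is 500 nM glycine (250 nM ³H, 250 nM unlabelled) in HBSS/5 mM alanine, 1% DMSO, after roughly 5-10 min compound preincubation. Cells: confluent SK-N-MC endogenously expressing human GlyT1.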

Row | IC50 | SMILES
1 | 10 nM | C[C@H](Oc1ccc(S(C)(=O)=O)cc1C(=O)N1CC2CC2(c2nnc(C3(C(F)(F)F)CC3)o2)C1)C(F)(F)F (mixture of isomers) [Example 151, [5-Methanesulfonyl-2-(2,2,2-trifluoro-1-methyl-ethoxy)-phenyl]-{1-[5-(1-trifluoromethyl-cyclopropyl)-[1,3,4]oxadiazol-2-yl]-3-aza-bicyclo[3.1.0]hex-3-yl}-methanone]
2 | 72 nM | CC(C)Oc1ccc(S(C)(=O)=O)cc1C(=O)N1CC2CC2(c2nc(C3(C(F)(F)F)CC3)no2)C1 (racemic) [Example 154, (2-Isopropoxy-5-methanesulfonyl-phenyl)-{1-[3-(1-trifluoromethyl-cyclopropyl)-[1,2,4]oxadiazol-5-yl]-3-aza-bicyclo[3.1.0]hex-3-yl}-methanone]
3 | 36 nM | C[C@H](Oc1ccc(S(C)(=O)=O)cc1C(=O)N1CC2CC2(c2nc(C3(C(F)(F)F)CC3)no2)C1)C(F)(F)F (mixture of isomers) [Example 155, [5-Methanesulfonyl-2-(2,2,2-trifluoro-1-methyl-ethoxy)-phenyl]-{1-[3-(1-trifluoromethyl-cyclopropyl)-[1,2,4]oxadiazol-5-yl]-3-aza-bicyclo[3.1.0]hex-3-yl}-methanone]
4 | 11 nM | C[C@@H](Oc1ccc(S(C)(=O)=O)cc1C(=O)N1CC2CC2(c2nc(C3(C(F)(F)F)CC3)no2)C1)C(F)(F)F (mixture of isomers) [Example 156, [5-Methanesulfonyl-2-(2,2,2-trifluoro-1-methyl-ethoxy)-phenyl]-{1-[3-(1-trifluoromethyl-cyclopropyl)-[1,2,4]oxadiazol-5-yl]-3-aza-bicyclo[3.1.0]hex-3-yl}-methanone]
5 | 147 nM | C[C@H](Oc1ccc(S(C)(=O)=O)cc1C(=O)N1CC2(C)CC2(c2noc(C(F)(F)F)n2)C1)C(F)(F)F (mixture of isomers) [Example 157, [5-Methanesulfonyl-2-(2,2,2-trifluoro-1-methyl-ethoxy)-phenyl]-[1-methyl-5-(5-trifluoromethyl-[1,2,4]oxadiazol-3-yl)-3-aza-bicyclo[3.1.0]hex-3-yl]-methanone]
6 | 8 nM | Cc1c(C23CC2CN(C(=O)c2cc(S(C)(=O)=O)ccc2O[C@H](C)C(F)(F)F)C3)noc1C(F)(F)F (mixture of isomers) [Example 160]
7 | 16 nM | Cc1c(C23CC2CN(C(=O)c2cc(S(C)(=O)=O)ccc2O[C@@H](C)C(F)(F)F)C3)noc1C(F)(F)F (mixture of isomers) [Example 163]
8 | 18 nM | C[C@H](Oc1ccc(S(C)(=O)=O)cc1C(=O)N1CC2CC2(c2noc(C(F)(F)F)n2)C1)C(F)(F)F (single isomer, unassigned) [Example 2, [5-Methanesulfonyl-2-(2,2,2-trifluoro-1-methyl-ethoxy)-phenyl]-[1-(5-trifluoromethyl-[1,2,4]oxadiazol-3-yl)-3-aza-bicyclo[3.1.0]hex-3-yl]-methanone]
9 | 1020 nM | C[C@H](Oc1ccc(S(C)(=O)=O)cc1C(=O)N1CC2CC2(c2noc(C(F)(F)F)n2)C1)C(F)(F)F (single isomer, unassigned) [Example 3, [5-Methanesulfonyl-2-(2,2,2-trifluoro-1-methyl-ethoxy)-phenyl]-[1-(5-trifluoromethyl-[1,2,4]oxadiazol-3-yl)-3-aza-bicyclo[3.1.0]hex-3-yl]-methanone]
10 | 9 nM | C[C@@H](Oc1ccc(S(C)(=O)=O)cc1C(=O)N1CC2CC2(c2noc(C(F)(F)F)n2)C1)C(F)(F)F (single isomer, unassigned) [Example 4, [5-Methanesulfonyl-2-(2,2,2-trifluoro-1-methyl-ethoxy)-phenyl]-[1-(5-trifluoromethyl-[1,2,4]oxadiazol-3-yl)-3-aza-bicyclo[3.1.0]hex-3-yl]-methanone]
11 | 1380 nM | C[C@@H](Oc1ccc(S(C)(=O)=O)cc1C(=O)N1CC2CC2(c2noc(C(F)(F)F)n2)C1)C(F)(F)F (single isomer, unassigned) [Example 5, [5-Methanesulfonyl-2-(2,2,2-trifluoro-1-methyl-ethoxy)-phenyl]-[1-(5-trifluoromethyl-[1,2,4]oxadiazol-3-yl)-3-aza-bicyclo[3.1.0]hex-3-yl]-methanone]
12 | 4 nM | Cc1nc(C23CC2CN(C(=O)c2cc(S(C)(=O)=O)ccc2O[C@@H](C)C(F)(F)F)C3)no1 (single isomer, unassigned) [Example 7, [5-Methanesulfonyl-2-(2,2,2-trifluoro-1-methyl-ethoxy)-phenyl]-[1-(5-methyl-[1,2,4]oxadiazol-3-yl)-3-aza-bicyclo[3.1.0]hex-3-yl]-methanone]
13 | 474 nM | Cc1nc(C23CC2CN(C(=O)c2cc(S(C)(=O)=O)ccc2O[C@@H](C)C(F)(F)F)C3)no1 (single isomer, unassigned) [Example 8, [5-Methanesulfonyl-2-(2,2,2-trifluoro-1-methyl-ethoxy)-phenyl]-[1-(5-methyl-[1,2,4]oxadiazol-3-yl)-3-aza-bicyclo[3.1.0]hex-3-yl]-methanone]
14 | 42 nM | C[C@H](Oc1ccc(S(C)(=O)=O)cc1C(=O)N1CC2CC2(c2noc(C3CC3)n2)C1)C(F)(F)F (single isomer, unassigned) [Example 10, [1-(5-Cyclopropyl-[1,2,4]oxadiazol-3-yl)-3-aza-bicyclo[3.1.0]hex-3-yl]-[5-methanesulfonyl-2-(2,2,2-trifluoro-1-methyl-ethoxy)-phenyl]-methanone]
15 | 175 nM | C[C@H](Oc1ccc(S(C)(=O)=O)cc1C(=O)N1CC2CC2(c2noc(C3CC3)n2)C1)C(F)(F)F (single isomer, unassigned) [Example 11, [1-(5-Cyclopropyl-[1,2,4]oxadiazol-3-yl)-3-aza-bicyclo[3.1.0]hex-3-yl]-[5-methanesulfonyl-2-(2,2,2-trifluoro-1-methyl-ethoxy)-phenyl]-methanone]
16 | 10 nM | C[C@H](Oc1ccc(S(C)(=O)=O)cc1C(=O)N1CC2CC2(c2nccc(C(F)(F)F)n2)C1)C(F)(F)F (single isomer, unassigned) [Example 16, [5-Methanesulfonyl-2-(2,2,2-trifluoro-1-methyl-ethoxy)-phenyl]-[1-(4-trifluoromethyl-pyrimidin-2-yl)-3-aza-bicyclo[3.1.0]hex-3-yl]-methanone]
17 | 157 nM | C[C@H](Oc1ccc(S(C)(=O)=O)cc1C(=O)N1CC2CC2(c2nccc(C(F)(F)F)n2)C1)C(F)(F)F (single isomer, unassigned) [Example 17, [5-Methanesulfonyl-2-(2,2,2-trifluoro-1-methyl-ethoxy)-phenyl]-[1-(4-trifluoromethyl-pyrimidin-2-yl)-3-aza-bicyclo[3.1.0]hex-3-yl]-methanone]
18 | 106 nM | C[C@@H](Oc1ccc(S(C)(=O)=O)cc1C(=O)N1CC2CC2(c2nccc(C(F)(F)F)n2)C1)C(F)(F)F (single isomer, unassigned) [Example 18, [5-Methanesulfonyl-2-(2,2,2-trifluoro-1-methyl-ethoxy)-phenyl]-[1-(4-trifluoromethyl-pyrimidin-2-yl)-3-aza-bicyclo[3.1.0]hex-3-yl]-methanone]
19 | 5 nM | C[C@@H](Oc1ccc(S(C)(=O)=O)cc1C(=O)N1CC2CC2(c2nccc(C(F)(F)F)n2)C1)C(F)(F)F (single isomer, unassigned) [Example 19, [5-Methanesulfonyl-2-(2,2,2-trifluoro-1-methyl-ethoxy)-phenyl]-[1-(4-trifluoromethyl-pyrimidin-2-yl)-3-aza-bicyclo[3.1.0]hex-3-yl]-methanone]
20 | 5 nM | Cc1cnc(C23CC2CN(C(=O)c2cc(S(C)(=O)=O)ccc2O[C@@H](C)C(F)(F)F)C3)o1 (single isomer, unassigned) [Example 22, [5-Methanesulfonyl-2-(2,2,2-trifluoro-1-methyl-ethoxy)-phenyl]-[1-(5-methyl-oxazol-2-yl)-3-aza-bicyclo[3.1.0]hex-3-yl]-methanone]
21 | 181 nM | Cc1cnc(C23CC2CN(C(=O)c2cc(S(C)(=O)=O)ccc2O[C@@H](C)C(F)(F)F)C3)o1 (single isomer, unassigned) [Example 23, [5-Methanesulfonyl-2-(2,2,2-trifluoro-1-methyl-ethoxy)-phenyl]-[1-(5-methyl-oxazol-2-yl)-3-aza-bicyclo[3.1.0]hex-3-yl]-methanone]
22 | 5 nM | C[C@H](Oc1ccc(S(C)(=O)=O)cc1C(=O)N1CC2CC2(c2csc(C(F)(F)F)n2)C1)C(F)(F)F (single isomer, unassigned) [Example 27, [5-Methanesulfonyl-2-(2,2,2-trifluoro-1-methyl-ethoxy)-phenyl]-[1-(2-trifluoromethyl-thiazol-4-yl)-3-aza-bicyclo[3.1.0]hex-3-yl]-methanone]

From patent publication US9012489B2, “Phenyl-3-aza-bicyclo[3.1.0]hex-3-yl-methanones and the use thereof as medicament” (Boehringer Ingelheim International GmbH, priority 2011, dated 2015)
